Source: PubChem BioAssay AID1963438 (Molecular Pharmacology Branch, DTP, NCI, 2024)

System: NCI-H510 multicellular tumor spheroid growth, % test/control
Assay: Anticancer human tumor NCI-H510 cell line growth inhibition [Asc];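 further: spheroids exposed to agents for 7 days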;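 on viability, T/C: 100% = DMSO vehicle control wells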
Conditions: for IC50: curve of first compound; for viability, T/C: stronger effect = lower value
Procedure, shortened: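 Complex solid-tumor spheroids incorporating human endothelial and mesenchymal stem cells received single agents or combinations over half-log dilution ranges anchored to clinical Cmax.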

[1] = second compound 0.1 µM, first compound 0.0316 µM
[2] = second compound 0.1 µM, first compound 0.1 µM
[3] = second compound 0.1 µM, first compound 0.316 µM
[4] = second compound 0.1 µM, first compound 1 µM
[5] = second compound 0.1 µM, first compound 3.16 µM
[6] = second compound 0.1 µM, first compound 10 µM
[7] = second compound 0.316 µM, first compound 0.0316 µM
[8] = second compound 0.316 µM, first compound 0.1 µM
[9] = second compound 0.316 µM, first compound 0.316 µM
[10] = second compound 0.316 µM, first compound 1 µM
[11] = second compound 0.316 µM, first compound 3.16 µM
[12] = second compound 0.316 µM, first compound 10 µM
[13] = second compound 1 µM, first compound 0.0316 µM
[14] = second compound 1 µM, first compound 0.1 µM
[15] = second compound 1 µM, first compound 0.316 µM
[16] = second compound 1 µM, first compound 1 µM
[17] = second compound 1 µM, first compound 3.16 µM
[18] = second compound 1 µM, first compound 10 µM

Compound: C=C(F)C(=O)N1CCN(c2nc(OCC3CCCN3C)nc3c2CCN(c2cccc4cccc(Cl)c24)C3)CC1CC#N (stereo not given) + CNC(C)C(=O)NC1CN(S(=O)(=O)c2cccc(S(=O)(=O)N3CCC4CCC(C(=O)NC(c5ccccc5)c5ccccc5)N4C(=O)C(NC(=O)C(C)NC)C3)c2)CCC2CCC(C(=O)NC(c3ccccc3)c3ccccc3)N2C1=O
- IC50 (second compound 0.01 µM): 1960 nM
- IC50 (second compound 0.0316 µM): 1860 nM
- IC50 (second compound 0.1 µM): 1750 nM
- IC50 (second compound 0.316 µM): 1700 nM
- IC50 (second compound 1 µM): 1830 nM
- viability, T/C (second compound 0.01 µM, first compound 0.0316 µM): 125%
- viability, T/C (second compound 0.01 µM, first compound 0.1 µM): 117%
- viability, T/C (second compound 0.01 µM, first compound 0.316 µM): 108%
- viability, T/C (second compound 0.01 µM, first compound 1 µM): 116%
- viability, T/C (second compound 0.01 µM, first compound 3.16 µM): 2.75%
- viability, T/C (second compound 0.01 µM, first compound 10 µM): 0.14%
- viability, T/C (second compound 0.0316 µM, first compound 0.0316 µM): 115%
- viability, T/C (second compound 0.0316 µM, first compound 0.1 µM): 101%
- viability, T/C (second compound 0.0316 µM, first compound 0.316 µM): 104%
- viability, T/C (second compound 0.0316 µM, first compound 1 µM): 108%
- viability, T/C (second compound 0.0316 µM, first compound 3.16 µM): 1.63%
- viability, T/C (second compound 0.0316 µM, first compound 10 µM): 0.13%
- viability, T/C [1]: 102%
- viability, T/C [2]: 119%
- viability, T/C [3]: 110%
- viability, T/C [4]: 96.4%
- viability, T/C [5]: 1.1%
- viability, T/C [6]: 0.14%
- viability, T/C [7]: 97.4%
- viability, T/C [8]: 124%
- viability, T/C [9]: 115%
- viability, T/C [10]: 89.4%
- viability, T/C [11]: 4.39%
- viability, T/C [12]: 0.13%
- viability, T/C [13]: 115%
- viability, T/C [14]: 105%
- viability, T/C [15]: 108%
- viability, T/C [16]: 104%
- viability, T/C [17]: 0.85%
- viability, T/C [18]: 0.22%

Compound: CCN1C(C(=O)NC23CCC(C(=O)O)(CC2)CC3)C(c2cccc(Cl)c2F)C2(C(=O)Nc3cc(Cl)ccc32)C12CCCCC2 (stereo not given) + CNC(C)C(=O)NC1CN(S(=O)(=O)c2cccc(S(=O)(=O)N3CCC4CCC(C(=O)NC(c5ccccc5)c5ccccc5)N4C(=O)C(NC(=O)C(C)NC)C3)c2)CCC2CCC(C(=O)NC(c3ccccc3)c3ccccc3)N2C1=O
- IC50 (second compound 0.01 µM): > 3000 nM
- IC50 (second compound 0.0316 µM): > 3000 nM
- IC50 (second compound 0.1 µM): > 3000 nM
- IC50 (second compound 0.316 µM): > 3000 nM
- IC50 (second compound 1 µM): > 3000 nM
- viability, T/C (second compound 0.01 µM, first compound 0.00949 µM): 130%
- viability, T/C (second compound 0.01 µM, first compound 0.03 µM): 104%
- viability, T/C (second compound 0.01 µM, first compound 0.0949 µM): 101%
- viability, T/C (second compound 0.01 µM, first compound 0.3 µM): 96.7%
- viability, T/C (second compound 0.01 µM, first compound 0.949 µM): 108%
- viability, T/C (second compound 0.01 µM, first compound 3 µM): 104%
- viability, T/C (second compound 0.0316 µM, first compound 0.00949 µM): 108%
- viability, T/C (second compound 0.0316 µM, first compound 0.03 µM): 98.3%
- viability, T/C (second compound 0.0316 µM, first compound 0.0949 µM): 97.8%
- viability, T/C (second compound 0.0316 µM, first compound 0.3 µM): 117%
- viability, T/C (second compound 0.0316 µM, first compound 0.949 µM): 131%
- viability, T/C (second compound 0.0316 µM, first compound 3 µM): 90.9%
- viability, T/C (second compound 0.1 µM, first compound 0.00949 µM): 108%
- viability, T/C (second compound 0.1 µM, first compound 0.03 µM): 113%
- viability, T/C (second compound 0.1 µM, first compound 0.0949 µM): 106%
- viability, T/C (second compound 0.1 µM, first compound 0.3 µM): 101%
- viability, T/C (second compound 0.1 µM, first compound 0.949 µM): 93.5%
- viability, T/C (second compound 0.1 µM, first compound 3 µM): 121%
- viability, T/C (second compound 0.316 µM, first compound 0.00949 µM): 95.3%
- viability, T/C (second compound 0.316 µM, first compound 0.03 µM): 117%
- viability, T/C (second compound 0.316 µM, first compound 0.0949 µM): 95.5%
- viability, T/C (second compound 0.316 µM, first compound 0.3 µM): 109%
- viability, T/C (second compound 0.316 µM, first compound 0.949 µM): 92.9%
- viability, T/C (second compound 0.316 µM, first compound 3 µM): 107%
- viability, T/C (second compound 1 µM, first compound 0.00949 µM): 96.6%
- viability, T/C (second compound 1 µM, first compound 0.03 µM): 97.1%
- viability, T/C (second compound 1 µM, first compound 0.0949 µM): 94.8%
- viability, T/C (second compound 1 µM, first compound 0.3 µM): 99.2%
- viability, T/C (second compound 1 µM, first compound 0.949 µM): 97.8%
- viability, T/C (second compound 1 µM, first compound 3 µM): 115%

Compound: O=C(c1cc(Cc2n[nH]c(=O)c3ccccc23)ccc1F)N1CCN(C(=O)C2CC2)CC1 + Cc1c(S(C)(=O)=O)c(-c2cc(F)cc(N3CCN(c4ccc(NS(=O)(=O)c5ccc(NC(CCN6CCC(C(=O)OCCCP(=O)(O)O)CC6)CSc6ccccc6)c(S(=O)(=O)C(F)(F)F)c5)cc4)CC3)c2)c(-c2ccc(Cl)cc2)n1C(C)C
- IC50 (second compound 0.1 µM): 1610 nM
- IC50 (second compound 0.316 µM): 1520 nM
- IC50 (second compound 1 µM): 1490 nM
- IC50 (second compound 3.16 µM): 1160 nM
- IC50 (second compound 10 µM): 1320 nM
- viability, T/C [1]: 94.8%
- viability, T/C [2]: 101%
- viability, T/C [3]: 107%
- viability, T/C [4]: 74.1%
- viability, T/C [5]: 13.4%
- viability, T/C [6]: 18.7%
- viability, T/C [7]: 124%
- viability, T/C [8]: 89.1%
- viability, T/C [9]: 106%
- viability, T/C [10]: 73.5%
- viability, T/C [11]: 8.58%
- viability, T/C [12]: 3.25%
- viability, T/C [13]: 94.8%
- viability, T/C [14]: 112%
- viability, T/C [15]: 93.2%
- viability, T/C [16]: 69.5%
- viability, T/C [17]: 14.3%
- viability, T/C [18]: 3.96%
- viability, T/C (second compound 3.16 µM, first compound 0.0316 µM): 111%
- viability, T/C (second compound 3.16 µM, first compound 0.1 µM): 121%
- viability, T/C (second compound 3.16 µM, first compound 0.316 µM): 87.1%
- viability, T/C (second compound 3.16 µM, first compound 1 µM): 63.3%
- viability, T/C (second compound 3.16 µM, first compound 3.16 µM): 4.95%
- viability, T/C (second compound 3.16 µM, first compound 10 µM): 3.34%
- viability, T/C (second compound 10 µM, first compound 0.0316 µM): 81.6%
- viability, T/C (second compound 10 µM, first compound 0.1 µM): 94.5%
- viability, T/C (second compound 10 µM, first compound 0.316 µM): 81.5%
- viability, T/C (second compound 10 µM, first compound 1 µM): 65.2%
- viability, T/C (second compound 10 µM, first compound 3.16 µM): 1.71%
- viability, T/C (second compound 10 µM, first compound 10 µM): 1.74%
